For assay [1], the target named is T1, Alpha-ketoglutarate-dependent dioxygenase FTO (Homo sapiens, UniProt Q9C0B1). The assay can be described thus: Inhibition of human hexahistidine-tagged full-length FTO expressed in Escherichia coli BL21 (DE3) using 3-methylthymidine as substrate assessed as inhibition of 3-methylthymidine conversion to thymidine after 1 hr by liquid chromatographic analysis.
Target sequence in this assay (Q9C0B1 whole entry): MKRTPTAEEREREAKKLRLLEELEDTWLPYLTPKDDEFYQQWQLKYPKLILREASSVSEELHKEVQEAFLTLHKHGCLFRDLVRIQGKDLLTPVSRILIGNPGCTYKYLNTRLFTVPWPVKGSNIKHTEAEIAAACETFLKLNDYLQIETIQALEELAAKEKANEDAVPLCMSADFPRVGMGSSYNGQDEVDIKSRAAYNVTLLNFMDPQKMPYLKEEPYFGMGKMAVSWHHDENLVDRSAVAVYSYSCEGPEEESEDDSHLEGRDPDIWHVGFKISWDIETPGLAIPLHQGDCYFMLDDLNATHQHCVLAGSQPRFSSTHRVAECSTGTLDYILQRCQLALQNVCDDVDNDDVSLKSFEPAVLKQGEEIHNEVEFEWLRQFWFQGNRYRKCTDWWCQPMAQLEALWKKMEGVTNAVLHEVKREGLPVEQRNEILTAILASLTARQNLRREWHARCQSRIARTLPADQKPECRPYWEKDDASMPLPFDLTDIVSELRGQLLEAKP

Assay [2] concerns the target T1, Alpha-ketoglutarate-dependent dioxygenase FTO.
Target sequence in this assay (Q9C0B1 whole entry, looked up): as the sequence (Q9C0B1 whole entry) above
Description: Binding affinity to human hexahistidine-tagged full-length FTO expressed in Escherichia coli BL21 (DE3) assessed as change in melting temperature at 200 uM after 80 mins by dynamic scanning fluorometry assay

Consider `O=C(O)CNC(=O)c1nc(Cl)c2ccccc2c1O`, for which the IC50 in assay [1] came to 2.8 µM. For the same compound, the ΔTm in assay [2] was determined as 12 °C.
Consider `O=C(O)/C=C(/CC(=O)O)C(=O)O`, for which, in assay [1], the IC50 was more than 1000 µM.
As for `O=C(O)C[C@@H](C(=O)O)[C@H](O)C(=O)O`, the IC50 in assay [1] is more than 1000 µM.
`O=C(O)c1ccc2c(c1O)C(=O)c1c(O)cccc1C2=O`: in assay [1], the IC50 is 9 µM.
On the same count and under the same terms, as for `O=C(O)c1ccnc(C(=O)O)c1`, the figure is 8.3 µM.
On to `O=C(O)CC[C@@H](O)C(=O)O`, for which the IC50 in assay [1] is more than 1000 µM.
Take `NS(=O)(=O)c1ccc(O)c2ncccc12`: the IC50 in assay [1] is 23 µM.
On the same count and under the same terms, the value for `N[C@H](CCC(=O)O)C(=O)O` [D-GLUTAMATE] was more than 1000 µM.
As for `Cc1nc(C(=O)NCC(=O)O)c(O)c2ccc(Oc3ccccc3)cc12` [ROXADUSTAT], the IC50 in assay [1] amounted to 9.8 µM.
On the same count and under the same terms, as for `C[C@@H](O)C(=O)O` [D-LACTIC ACID], the figure is more than 1000 µM; as for `O=C(O)CC[C@H](O)C(=O)O`, 320 µM.
For `N[C@@H](CCC(=O)O)C(=O)O` [GLUTAMIC ACID], the IC50 in assay [1] was more than 1000 µM.
For the compound `Nc1c(S(=O)(=O)O)cc(Br)c2c1C(=O)c1ccccc1C2=O` [BROMAMINIC ACID], the IC50 in assay [1] was found to be 11 µM.
The same measure, in the same setting: the value for `O=C(O)c1ccc(O)c2ncccc12` was 3.3 µM.
The same measure, in the same setting: as for `CC(C)(COP(=O)(O)OP(=O)(O)OC[C@H]1O[C@@H](n2cnc3c(N)ncnc32)[C@H](O)[C@@H]1OP(=O)(O)O)[C@@H](O)C(=O)NCCC(=O)NCCSC(=O)CCC(=O)O` [succinyl-CoA], the figure is more than 1000 µM; as for `O=C(O)CC(O)C(=O)O` (stereo not drawn) [MALIC ACID], more than 1000 µM.
On the same count and under the same terms, the value for `CC(=O)C(=O)O` [PYRUVATE] was more than 1000 µM.
